Measurements taken from ChEMBL document CHEMBL1201862, “PubChem BioAssay data set” (2004).
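All cell lines were grown in 96-well plates and treated with compound for 48 hours. The concentration for 50% growth inhibition is given as GI50.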 The source made the active and inactive calls. Rule as the data show it: active = GI50 up to about 1.1 µM and inactive = higher.

How the values were obtained:
Assay in all cases: inhibition of tumour cell growth, NCI panel, 48 h
Malme-3M = test system: Malme-3M
MDA-MB-435 = test system: MDA-MB-435
SF-539 = test system: SF-539
TK-10 = test system: TK-10
LOX IMVI = test system: LOX IMVI
CAKI-1 = test system: CAKI-1
MDA-N = test system: MDA-N
SN12C = test system: SN12C
MCF7 = test system: MCF7
PC-3 = test system: PC-3
BT-549 = test system: BT-549
SK-MEL-5 = test system: SK-MEL-5
RXF 393 = test system: RXF 393
OVCAR-5 = test system: OVCAR-5
NCI-H23 = test system: NCI-H23
U-251 = test system: U-251
SW-620 = test system: SW-620
UACC-257 = test system: UACC-257
DU-145 = test system: DU-145
RPMI-8226 = test system: RPMI-8226

Row | SMILES | GI50 (Malme-3M) | GI50 (MDA-MB-435) | GI50 (SF-539) | GI50 (TK-10) | GI50 (LOX IMVI) | GI50 (CAKI-1) | GI50 (MDA-N) | GI50 (SN12C) | GI50 (MCF7) | GI50 (PC-3) | GI50 (BT-549) | GI50 (SK-MEL-5) | GI50 (RXF 393) | GI50 (OVCAR-5) | GI50 (NCI-H23) | GI50 (U-251) | GI50 (SW-620) | GI50 (UACC-257) | GI50 (DU-145) | GI50 (RPMI-8226)
1 | O=C(Nc1ccc(Cl)cc1)NS(=O)(=O)c1coc2cc(F)ccc2c1=O | > 100 µM (inactive) | 30.6 µM (inactive) | 87.7 µM (inactive) | > 100 µM (inactive) | > 100 µM (inactive) | > 100 µM (inactive) | > 100 µM (inactive) | > 100 µM (inactive) | > 100 µM (inactive) | > 100 µM (inactive) | > 100 µM (inactive) | > 100 µM (inactive) | > 100 µM (inactive) | > 100 µM (inactive) | > 100 µM (inactive) | 62.2 µM (inactive) | > 100 µM (inactive) | > 100 µM (inactive) | – | –
2 | CC1=C(C)C(=O)C2=C(OCCO2)C1=O | 15.9 µM (inactive) | 2.82 µM (inactive) | 19.9 µM (inactive) | 16.9 µM (inactive) | 12.1 µM (inactive) | 17.6 µM (inactive) | 10.3 µM (inactive) | 20 µM (inactive) | 24.5 µM (inactive) | 18.2 µM (inactive) | 22.8 µM (inactive) | 16 µM (inactive) | – | 19.7 µM (inactive) | 18.2 µM (inactive) | 16.1 µM (inactive) | 20.6 µM (inactive) | 13.8 µM (inactive) | 18.8 µM (inactive) | 2.34 µM (inactive)
3 | O=C1C(=Cc2ccccc2O)N=C(c2ccccc2)N1n1c(-c2ccccc2)nc2ccccc2c1=O | 45.7 µM (inactive) | 36.8 µM (inactive) | 21.8 µM (inactive) | 50.2 µM (inactive) | 41.7 µM (inactive) | 25.8 µM (inactive) | 32.4 µM (inactive) | 43 µM (inactive) | 17.2 µM (inactive) | 34 µM (inactive) | 28.8 µM (inactive) | 19.1 µM (inactive) | – | – | 35.4 µM (inactive) | – | 45.8 µM (inactive) | 29.9 µM (inactive) | 35.5 µM (inactive) | 38.6 µM (inactive)
4 | CC(C)(C)OC(=O)n1c2ccccc2c2c(=O)nc(N3CCCCC3)sc21 | > 100 µM (inactive) | > 100 µM (inactive) | > 100 µM (inactive) | > 100 µM (inactive) | > 100 µM (inactive) | > 100 µM (inactive) | > 100 µM (inactive) | > 100 µM (inactive) | – | > 100 µM (inactive) | > 100 µM (inactive) | > 100 µM (inactive) | – | > 100 µM (inactive) | > 100 µM (inactive) | > 100 µM (inactive) | > 100 µM (inactive) | > 100 µM (inactive) | > 100 µM (inactive) | > 100 µM (inactive)
5 | CC1=NC(=Cc2ccc(Cl)cc2)C(=O)N1n1c(-c2ccccc2)nc2ccccc2c1=O | 33.2 µM (inactive) | 43.4 µM (inactive) | 35.1 µM (inactive) | 51.6 µM (inactive) | 38.5 µM (inactive) | 17.8 µM (inactive) | 35.1 µM (inactive) | 43.4 µM (inactive) | 28.2 µM (inactive) | 24.3 µM (inactive) | 40.6 µM (inactive) | 36.7 µM (inactive) | – | – | 26.3 µM (inactive) | – | 57.1 µM (inactive) | 25 µM (inactive) | 38.1 µM (inactive) | 34.1 µM (inactive)
6 | O=C(Nc1ccc2[nH]c(C(=O)N3CC(CCl)c4c3cc([N+](=O)[O-])c3ccccc43)cc2c1)Nc1ccc2[nH]c(C(=O)N3CC(CCl)c4c3cc([N+](=O)[O-])c3ccccc43)cc2c1 (stereo not drawn) | > 100 µM (inactive) | > 100 µM (inactive) | > 100 µM (inactive) | > 100 µM (inactive) | – | > 100 µM (inactive) | > 100 µM (inactive) | > 100 µM (inactive) | > 100 µM (inactive) | > 100 µM (inactive) | > 100 µM (inactive) | > 100 µM (inactive) | – | > 100 µM (inactive) | > 100 µM (inactive) | > 100 µM (inactive) | – | > 100 µM (inactive) | > 100 µM (inactive) | 85.7 µM (inactive)
7 | COc1cc(/C=C/c2cc(/C=C/c3ccc(O)c(OC)c3)oc(=O)c2)ccc1O | 2.66 µM (inactive) | 3.38 µM (inactive) | 6.79 µM (inactive) | 3.78 µM (inactive) | 3.71 µM (inactive) | 3.61 µM (inactive) | 4.7 µM (inactive) | 5.53 µM (inactive) | 3.33 µM (inactive) | 3.91 µM (inactive) | 3.23 µM (inactive) | 4.99 µM (inactive) | – | 32.8 µM (inactive) | 4.06 µM (inactive) | 3.07 µM (inactive) | 3.13 µM (inactive) | 5.25 µM (inactive) | 0.553 µM (active) | 2.3 µM (inactive)
8 | CC1=CC(C/C(C)=C/COc2ccc3ccc(=O)oc3c2)OC1=O (stereo not drawn) | – | 54.5 µM (inactive) | > 100 µM (inactive) | > 100 µM (inactive) | > 100 µM (inactive) | > 100 µM (inactive) | 68.9 µM (inactive) | > 100 µM (inactive) | > 100 µM (inactive) | 68.9 µM (inactive) | 76.2 µM (inactive) | 53.6 µM (inactive) | > 100 µM (inactive) | > 100 µM (inactive) | 50.7 µM (inactive) | 90.4 µM (inactive) | > 100 µM (inactive) | 47.4 µM (inactive) | > 100 µM (inactive) | –
9 | O=C(CNc1c(Cl)cccc1Cl)NC1C=Cc2ccc(S(=O)(=O)Nc3c(Cl)cccc3Cl)cc2C1=O (stereo not drawn) | > 100 µM (inactive) | > 100 µM (inactive) | > 100 µM (inactive) | > 100 µM (inactive) | 88.7 µM (inactive) | 47.5 µM (inactive) | > 100 µM (inactive) | > 100 µM (inactive) | > 100 µM (inactive) | 23.7 µM (inactive) | 60.7 µM (inactive) | – | – | 47.1 µM (inactive) | > 100 µM (inactive) | > 100 µM (inactive) | > 100 µM (inactive) | > 100 µM (inactive) | > 100 µM (inactive) | > 100 µM (inactive)
10 | COc1ccc(/C=C2\S/C(=N/Nc3nc(-c4ccccc4)cs3)NC2=O)cc1OC | – | 25.7 µM (inactive) | 24.3 µM (inactive) | 20.5 µM (inactive) | 23.3 µM (inactive) | 31.8 µM (inactive) | 15.4 µM (inactive) | 17.8 µM (inactive) | 19.2 µM (inactive) | 17.4 µM (inactive) | 24.5 µM (inactive) | 15.5 µM (inactive) | 4.5 µM (inactive) | 23.4 µM (inactive) | 19.1 µM (inactive) | 26.3 µM (inactive) | 30.3 µM (inactive) | 33.3 µM (inactive) | 34 µM (inactive) | –
11 | CC1N=C(c2ccccc2)OC1=O (stereo not drawn) | > 100 µM (inactive) | > 100 µM (inactive) | > 100 µM (inactive) | > 100 µM (inactive) | > 100 µM (inactive) | > 100 µM (inactive) | > 100 µM (inactive) | > 100 µM (inactive) | > 100 µM (inactive) | > 100 µM (inactive) | > 100 µM (inactive) | > 100 µM (inactive) | – | > 100 µM (inactive) | > 100 µM (inactive) | > 100 µM (inactive) | > 100 µM (inactive) | > 100 µM (inactive) | > 100 µM (inactive) | > 100 µM (inactive)
